Measurements as given in US12606852B2, “Conversion of lignin-derived monomers to muconate by engineered pseudomonas” (Alliance for Sustainable Energy, LLC, priority 2021, dated 2026).
Values joined by “and” are separate entries in the source; they are usually repeats but may differ in a detail not shown here. Equal values may be shown once. Read-outs that look alike come from different tables or passages of the source.

Assays:
[1] = target: T1, Paenibacillus sp. JJ-1b PraI (para-hydroxybenzoate-3-hydroxylase, PHBH), BAH79107, tagless, praI_EC gene SEQ ID NO: 3 (Paenibacillus sp., UniProt C4TP09); assay: Steady-state kinetic analysis of PraI (hydroxylation of 4-hydroxybenzoate); format: biochemical; conditions: for kcat (NAD(P)H): air-saturated, 200 μM 4-hydroxybenzoate, pH 8, 25° C.
T1 construct: His-tagged form only for crystallography

[2] = target: Pseudomonas putida KT2440 PobA (para-hydroxybenzoate-3-hydroxylase, PHBH), native, PP_3537, tagless, pobA_EC gene SEQ ID NO: 1 (Pseudomonas putida, UniProt Q88H28); assay: Steady-state kinetic analysis of PobA (hydroxylation of 4-hydroxybenzoate); format: biochemical; conditions: for kcat (NAD(P)H): NADPH varied, air-saturated, 200 μM 4-hydroxybenzoate, pH 8, 25° C.
[3] = test system: Pseudomonas aeruginosa PHBH (para-hydroxybenzoate-3-hydroxylase); conditions: reported value, natively produced PHBH, cited from earlier work
[4] = test system: Pseudomonas fluorescens PHBH (para-hydroxybenzoate-3-hydroxylase); conditions: read-out: KM^NADPH; reported value, natively produced PHBH; cited from earlier work

Pseudomonas putida KT2440 PobA (para-hydroxybenzoate-3-hydroxylase, PHBH), native, PP_3537, tagless, pobA_EC gene SEQ ID NO: 1, sequence (Q88H28 1-395): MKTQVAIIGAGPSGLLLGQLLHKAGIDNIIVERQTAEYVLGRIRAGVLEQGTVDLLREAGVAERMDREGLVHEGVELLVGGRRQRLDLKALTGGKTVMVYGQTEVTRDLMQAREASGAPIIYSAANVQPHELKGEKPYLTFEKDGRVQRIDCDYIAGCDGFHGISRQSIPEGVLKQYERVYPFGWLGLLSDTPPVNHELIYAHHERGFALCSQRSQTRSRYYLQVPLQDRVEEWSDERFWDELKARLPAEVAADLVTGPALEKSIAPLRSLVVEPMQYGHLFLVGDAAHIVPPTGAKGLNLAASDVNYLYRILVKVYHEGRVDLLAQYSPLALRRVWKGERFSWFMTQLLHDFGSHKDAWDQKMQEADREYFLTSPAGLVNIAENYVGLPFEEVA
T1 sequence (C4TP09 2-394): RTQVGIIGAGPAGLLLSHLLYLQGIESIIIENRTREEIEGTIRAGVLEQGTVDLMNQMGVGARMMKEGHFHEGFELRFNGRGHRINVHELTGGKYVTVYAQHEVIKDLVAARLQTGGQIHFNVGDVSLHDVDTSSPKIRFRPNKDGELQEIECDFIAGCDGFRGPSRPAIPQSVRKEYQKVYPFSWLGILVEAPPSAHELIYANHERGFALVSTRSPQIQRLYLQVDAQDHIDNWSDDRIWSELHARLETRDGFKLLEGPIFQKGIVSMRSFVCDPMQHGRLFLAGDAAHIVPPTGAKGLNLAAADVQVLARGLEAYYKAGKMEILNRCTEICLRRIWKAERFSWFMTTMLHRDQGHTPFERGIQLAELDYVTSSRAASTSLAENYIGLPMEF

In the case of `O=C(O)c1ccc(O)cc1` [4-hydroxybenzoate], the Km ([1]; read-out: KM (4-hydroxybenzoate), pH 8) is reported as 16 ± 1 µM.
For `NC(=O)C1=CN([C@@H]2O[C@H](COP(=O)(O)OP(=O)(O)OC[C@H]3O[C@@H](n4cnc5c(N)ncnc54)[C@H](O)[C@@H]3O)[C@@H](O)[C@H]2O)C=CC1` [NADH], the “utilization as reducing equivalent” value ([2]; O2 consumption in mixture containing PobA and 4HB) was “unreactive”, the “kcat (NAD(P)H)” value ([1]; NADH varied, NADH detection (340 nm)) was 25 ± 2 s⁻¹ and the “kcat (NAD(P)H)” value ([1]; NADH varied, O2 detection (oxygraph)) was 22 ± 2 s⁻¹. The “substrate specificity for NADH (slightly lowered)” value ([1]; NADH, relative to NADPH) was “about 60%”.
With `NC(=O)C1=CN([C@@H]2O[C@H](COP(=O)(O)OP(=O)(O)OC[C@H]3O[C@@H](n4cnc5c(N)ncnc54)[C@H](OP(=O)(O)O)[C@@H]3O)[C@@H](O)[C@H]2O)C=CC1` [NADPH] the “kcat (NAD(P)H)” value ([2]; NADPH detection (340 nm)) was 50 ± 5 s⁻¹, the “kcat (NAD(P)H)” value ([2]; O2 detection (oxygraph)) was 47 ± 4 s⁻¹ and the “kcat (NAD(P)H)” value ([1]; NADPH varied, NADPH detection (340 nm)) was 27 ± 2 s⁻¹. The “kcat (NAD(P)H)” value ([1]; NADPH varied, O2 detection (oxygraph)) was 23 ± 2 s⁻¹, the “difference in substrate specificity towards NADPH, PobA and PraI” value ([1]; average, PraI compared with PobA, different combination of the reactants) was “≤ two-fold” and the Km ([3]; read-out: KM^NADPH) was 23 µM. The Km [4] was 50 µM.
For `O=O` [O2, molecular oxygen], the “kcat (O2)” value ([2]; pH 8) was 53 ± 5 s⁻¹, the Km ([2]; pH 8, read-out: KM (O2)) was 70 ± 5 µM and the “kcat (O2)” value ([1]; pH 8) was 25 ± 2 s⁻¹ and 22 ± 2 s⁻¹. For the same molecule, the Km ([1]; pH 8, read-out: KM (O2)) was 68 µM and 54 µM and the Km ([3]; read-out: KM^oxygen) was 37 µM.
